Several values for one entry are separate records, joined by “and”; a condition that tells them apart may be missing. Equal entries are not always repeated.
Tested on: acute allograft rejection (heart graft, Fischer donor to Long-Evans recipient)
Assay: Intra abdominal heterotopic cardiografting in rats with donor pretreatment; graft survival
Assay type: in vivo, rat
Procedure: 1-(2-chloroethyl)-1-nitroso-3-(3-methylcyclohexyl)urea was administered 5 mg per donor rat at a dosage of 20 mg/kg 24 hours prior to removal of heart tissue for transplantation. Administration of the compound above results in survival of 25 days, 27 days, 30 days, 32 days, and greater than 60 days.
According to this experiment, the donor rats were Fischer strain and the recipients were Long-Evans strains. These strains are mismatched at the major histocompatibility antigenic site (Ag locus). In the experiment, intra abdominal heterotopic cardiografting was performed using a modification of techniques described by Ono and Lindsey, Improved Technique of Heart Transplantation In Rats, Journal of Thoracic and Cardiovascular Surgery, 57: 225 (1969) and Lee et al., Heterotopic Heart and Lung Transplantation in the Rat, American Journal of Pathology, 59: 279 (1970), the entire contents of the disclosures of both of which are hereby incorporated by reference.
According to this experiment, a total dose of 20 milligrams per kilogram of the above compound was administered to donor rats 24 hours prior to transplantation. According to this dosage regimen, survival was prolonged from 10 to 25-60 days. Survival for 60 days indicated permanent survival, in other words, while typically surviving 10 days, the rats lived for 25-60 days, with the rats living to 60 days having a permanent survival.

In the case of `CC1CCCC(NC(=O)N(CCCl)N=O)C1` (stereo not shown) [1-(2-chloroethyl)-1-nitroso-3-(3-methylcyclohexyl)urea], the survival (5 mg per donor rat, 20 mg/kg, given to donor 24 hours prior to removal of heart tissue, Fischer donors, Long-Evans recipients, typical survival 10 days) is reported as 25 days and 27 days and 30 days and 32 days and greater than 60 days and 25-60 days, the “median survival (considering dying rats only) versus the compound alone” value (donors treated with 20 mg/kg compound combined with 100 mg/kg methotrexate) is reported as “increase in median survival” and the “microscopic evaluation of hearts” value (rats surviving for 60 days, sacrificed after two years, donor dose 20 mg/kg) is reported as “normal hearts”. The survival (recipients also treated with a single small dose of Cyclosporine A) was “increase in survival”.
